From US11357786B2, “Synthetic disugar hydrocarbons as natural analogs to control microbial behaviors” (Syracuse University, priority 2014, dated 2022)

Experiments:
Type in all cases: cell-based, Pseudomonas aeruginosa
[1] = tested on: nonswarming P. aeruginosa mutant rhlA; experiment: Swarming motility of nonswarming rhlA mutant on soft agar (reactivation / agonist assay); conditions: for Swarming motility of rhlA mutant: 85 μM in soft agar (0.5%); for Reactivation of swarming motility of rhlA mutant: concentration not given; for Concentration of activity reversal for swarming promotion of rhlA mutant (transition concentration): soft agar
Source text: Using nonswarming mutant to screen for swarming agonists and wild type P. aeruginosa for swarming antagonists. The transposon mutant, rhlA (genotype, rhlA-E08:ISphoA/hah)39 of P. aeruginosa (PAO1), that impairs the gene that is responsible for synthesizing rhamnolipids is completely incapable of a swarming motility. […] Based on this inference, a rhlA mutant was used in a swarming experiment to screen the saccharide-hydrocarbons for agonists that can reactivate the swarming motility of rhlA.
(§1) Swarm agar plates were based on M8 medium supplemented with 0.2% glucose, 0.5% casamino acid, 1 mM MgSO4 and […]. 17 For each set of experiment all the swarm plates were poured from same batch of agar and allowed to dry for 1 h before inoculation of bacteria. Bacterial culture (3 μl) (wild type PAO1 or rhlA mutant) with OD600 between […] was inoculated on the solidified agar plates. Swarm agar plates were incubated at 37° C. for 12 h and then incubated for additional 12 h at room temp. Chronological images of swarm plates were taken using a camera. To measure swarming area, sizes of the petridish in all swarming images were adjusted to a pre-assigned diameter and images were printed on copying paper (Xerox-business 4200). Weight of a 1 cm^2 copy paper square was roughly ˜8.0 mg. swarming images on the copy paper were cut and weighed, the swarm area was calculated by dividing the weight of image by weight of 1 cm^2 square (8 mg).
(§2) Swarm agar plates were made using M8 medium supplemented with 0.2% glucose, 0.5% casamino acid, 1 mM MgSO4 and solidified with 0.5% Bacto agar. 24 Bacterial culture with OD600 between 0.4 to 0.6 was inoculated as 3 μl aliquots. Swarm agar plates were incubated at 37° C. for 12 h and then incubated for additional 12 h at rt. For each set of experiment all the swarm plates were poured from same batch of agar and allowed to dry for 1 h before inoculation of bacteria.

wild type PAO1 = experiment: Swarming motility of wild type PAO1 on soft agar (antagonist assay); conditions: for Swarming motility of wild type PAO1: 85 μM in soft agar; for Effect on PAO1 swarming: concentration not given
Experimental: In contrast, the wild type P. aeruginosa produces the rhamnolipids and is capable of swarming on soft agar gel (˜0.5% agar). […] We note that saccharide hydrocarbons may also promote the swarming motility, but such promotions are less unambiguous than the inhibition for wild type PAO1. Such promotion will be unambiguous in the agonist assay using the nonswarming mutant rhlA.
as §1, §2

PAO1 biofilm = experiment: Crystal violet based static biofilm inhibition assay, DSHs in LB media (Examples 2 and 4); conditions: for Anti-biofilm activity (biofilm inhibition): concentration not given; for Inhibition of PAO1 biofilm formation (surface attached): 160 μM, 24 h, LB media, 160 µM
Experimental: The ability of DSHs was tested to inhibit Pseudomonas aeruginosa adhesion, biofilm and to disperse pre-formed biofilm. To quantify the amount of PAO1/EGFP attached on the surface of micro titer plates with or without the synthesized DSHs, fluorescence emitted by green fluorescent proteins (GFP) was quantified (see supporting info for details). Crystal violet (CV) based static biofilm assay (see supporting info) was used to screen the anti-biofilm potencies of all synthesized agents. Both surface attached (SA) (FIG. 17) and total (SA+air-liquid interface) biofilm of P. aeruginosa was quantified. […] CV assays were also used to quantify the amount of P. aeruginosa biofilm remaining after dispersion experiments (FIG. 19). Initially, all agents were screen for anti-biofilm activities (both inhibition and dispersion) at 160 μM. […] All reported biofilm inhibition results are an average of 4 identical wells.
The effect that DSHs have on the adhesion of PAO1-EGFP on polystyrene surface (microtiter plate) was also examined. PAO1-EGFP is a P. aeruginosa strain that constitutively expresses green fluorescent protein. In the adhesion assays, PAO1-EGFP was grown in microtiter plate for 24-hours in LB-media with (160 μM) or without DSHs. After 24-hours, the fluorescent signal obtained from surface adhered PAO1-EGFP was measured. Percent reduction in fluorescence was calculated by comparing fluorescent signal from PAO1-EGFP grown in LB-media with the signal from wells that had DSHs (FIG. 29A). To study the effect of DSHs on biofilm formation, Pseudomonas aeruginosa (PAO1) was grown in LB-media with (160 μM) or without DSHs at 37° C. under static conditions within wells of microtiter plates. After 24 hours, the surface attached biofilms adhering to the bottom of the wells were stained with crystal-violet dye and the biofilm was quantified by measuring absorbance at 600 nm (OD600). […] Similar to inhibition, the surface attached biofilm after dispersion with DSHs was quantified with crystal-violet staining and absorbance measurement at 600 nm, except that for dispersion, biofilm was first grown for 1 day in just LB-media without any DSHs after which DSHs were added and plates were incubated for additional 24 hours followed by quantification (FIG. 29B).
Crystal violet (CV) based-biofilm inhibition assay. Inhibitory effect of all synthesized disaccharide hydrocarbons on biofilm formation of Pseudomonas aeruginosa (wild type PAO1) was determined by static biofilm inhibition assay using crystal violet staining. Overnight culture of PAO1 were sub cultured in LB media to OD600 of 0.01 and further the OD600 was allowed to reach ˜0.1. The bacterial sub-culture (200 μL) was then added into the wells of a microtiter plate. Predetermined concentrations of DSHs were added to respective wells containing sub culture by pipetting out fixed volume of sterile aqueous stock solutions (except DβL (7), SPOT, (15) and 2-ODαC (17), which were introduced as stocks prepared in H2O […] and EtOH (90:10) solutions). The microtiter plates were then wrapped in GLAD Press n′ Seal® (saran wrap) and further incubated under stationary conditions for 24 h at 37° C. After 24 h incubation, the culture media was discarded by pipetting carefully (without disrupting biofilm), the plate was then washed once with sterile water (200 μL) and allowed to dry at 37° C. for ˜30 mins. Microtiter plates were then stained with 0.1% aqueous solution of crystal violet (CV) (200 μL) at rt for ˜30 mins. Following this, the CV stain was removed and plate was again washed with sterile water (200 μL). Resultant CV stain in the well was then solubilized by adding 100 μL of 30% AcOH solution (in water) and mixing gently by pipetting.

CCCCCCCCCCO[C@@H]1O[C@H](CO)[C@@H](O[C@H]2O[C@H](CO)[C@@H](O)[C@H](O)[C@H]2O)[C@H](O)[C@H]1O [DeβM, decyl β-matoside]
Swarming motility of rhlA mutant ([1]; 24 h): did not exhibit any significant activation of swarming

CCCCCCCCC(CO[C@@H]1O[C@H](CO)[C@@H](O[C@H]2O[C@H](CO)[C@@H](O)[C@H](O)[C@H]2O)[C@H](O)[C@H]1O)Cc1ccc(C(C)(C)C)cc1 (stereo partly drawn) [4-tBuBDeβM, 4-tertiary butyl benzyl decyl β-maltoside]
Swarming motility of rhlA mutant ([1]; 24 h): swarming motility with without well-defined tendrils

CCCCCCCCCCCO[C@@H]1O[C@H](CO)[C@@H](O[C@@H]2O[C@H](CO)[C@@H](O)[C@H](O)[C@H]2O)[C@H](O)[C@H]1O [UβC (3), undecyl-β-cellobioside]
Swarming motility of rhlA mutant ([1]; 24 h): strong reactivation of the swarming motility in rhlA mutant
Reactivation of swarming motility of rhlA mutant [1]: activated the swarming motility of rhlA mutant
Swarming motility of wild type PAO1 (wild type PAO1; 24 h): causing significant amount of tendril formation
Effect on PAO1 swarming (wild type PAO1): induced tendril formation in the swarming pattern of PAO1
Anti-biofilm activity (biofilm inhibition) (PAO1 biofilm): did not show significant inhibition of PAO1 biofilm

adamantane dodecyl β-maltoside [ADβM]
Swarming motility of rhlA mutant ([1]; 24 h): long, straight and well-defined tendrils

CCCCCCCCCCCCCO[C@@H]1O[C@H](CO)[C@@H](O[C@@H]2O[C@H](CO)[C@@H](O)[C@H](O)[C@H]2O)[C@H](O)[C@H]1O [TβC (5), tridecyl-β-cellobioside]
Concentration of first inhibition of rhlA swarming [1]: around 50 μM
Swarming motility of rhlA mutant ([1]; 24 h): no apparent reactivation of rhlA swarming
Concentration of another activation of rhlA swarming ([1]; after first inhibition): about 160 μM
Reactivation of swarming motility of rhlA mutant [1]: activated the swarming motility of rhlA mutant
Concentration of activity reversal for swarming promotion of rhlA mutant (transition concentration) [1]: ~40 µM
Concentration of activity reversal for swarming promotion of rhlA mutant (transition concentration) ([1]; listed as 5): 40 µM
Concentration at which tendrils were induced in PAO1 (wild type PAO1): 30 µM
Swarming motility of wild type PAO1 (wild type PAO1; 24 h): causing significant amount of tendril formation
Effect on PAO1 swarming (wild type PAO1): induced tendril formation in the swarming pattern of PAO1
Concentration of activity reversal for swarming inhibition of PAO1 (transition concentration) (wild type PAO1; soft agar): ~20 to 30 µM
Anti-biofilm activity (biofilm inhibition) (PAO1 biofilm): did not show significant inhibition of PAO1 biofilm

CCCCCCCCCCCCO[C@H]1O[C@H](CO)[C@@H](O[C@@H]2O[C@H](CO)[C@@H](O)[C@H](O)[C@H]2O)[C@H](O)[C@H]1O [DαC (6), dodecyl-α-cellobioside]
Swarming motility of rhlA mutant ([1]; 24 h): no apparent reactivation of rhlA swarming
Swarming motility of wild type PAO1 (wild type PAO1; 24 h): causing significant amount of tendril formation
Effect on PAO1 swarming (wild type PAO1): induced tendril formation in the swarming pattern of PAO1

C=CCCCCCCCCCO[C@@H]1O[C@H](CO)[C@@H](O[C@@H]2O[C@H](CO)[C@@H](O)[C@H](O)[C@H]2O)[C@H](O)[C@H]1O [UDβC (10), undecylenyl-β-cellobioside]
Swarming motility of rhlA mutant ([1]; 24 h): no significant effect on the swarming motility
Swarming motility of wild type PAO1 (wild type PAO1; 24 h): no significant effect on the swarming motility
Effect on PAO1 swarming (wild type PAO1): no apparent effect on PAO1 swarming
Inhibition of PAO1 biofilm formation (surface attached) (PAO1 biofilm; listed as 10: UDβC): lesser potency than DSH with completely saturated aliphatic chain
Anti-biofilm activity (biofilm inhibition) (PAO1 biofilm): did not show anti-biofilm activities

CCCCCCCCCCC(CO[C@@H]1O[C@H](CO)[C@@H](O[C@H]2O[C@H](CO)[C@@H](O)[C@H](O)[C@H]2O)[C@H](O)[C@H]1O)Cc1ccc(C)cc1 (stereo partly drawn) [4-MBDβM, 4-methyl benzyl dodecyl β-maltoside]
Swarming motility of rhlA mutant ([1]; 24 h): long, straight and well-defined tendrils

CCCCCCCCCCCCO[C@@H]1O[C@H](CO)[C@@H](O[C@H]2O[C@H](CO)[C@@H](O)[C@H](O)[C@H]2O)[C@H](O)[C@H]1O [DβM (1), dodecyl-β-maltoside]
Swarming motility of rhlA mutant ([1]; 24 h): strong reactivation of the swarming motility in rhlA mutant
Swarming motility of rhlA mutant ([1]; 24 h, listed as DβM): long, straight and well-defined tendrils
Swarming reactivation of rhlA mutant ([1]; 110 μM in soft agar, 24 h): fully restored the swarming of rhlA
Swarming motility of wild type PAO1 (wild type PAO1; 24 h): causing significant amount of tendril formation
Swarming of wild type PAO1 (wild type PAO1; 110 μM in soft agar, 24 h): did not significantly affect the swarm pattern
Effect on PAO1 swarming (wild type PAO1): induced tendril formation in the swarming pattern of PAO1
Inhibition of PAO1 biofilm formation (surface attached) (PAO1 biofilm; listed as 1: DβM): 50%

CCCCCCCCCCCO[C@@H]1O[C@H](CO)[C@@H](O[C@H]2O[C@H](CO)[C@@H](O)[C@H](O)[C@H]2O)[C@H](O)[C@H]1O [UβM, undecyl β-maltoside]
Swarming motility of rhlA mutant ([1]; 24 h): swarming motility with without well-defined tendrils

CCCCCCCCCCC(CO[C@@H]1O[C@H](CO)[C@@H](O[C@H]2O[C@H](CO)[C@@H](O)[C@H](O)[C@H]2O)[C@H](O)[C@H]1O)Cc1cc(C)cc(C)c1 (stereo partly drawn) [3,5-DMBDβM, 3,5-dimethyl benzyl dodecyl β-maltoside]
Swarming motility of rhlA mutant ([1]; 24 h): long, straight and well-defined tendrils
